ChEMBL document CHEMBL6134915, “Novel Sulfonamide Derivatives as Nav1.5 Sodium Channel Blockers for Treating Atrial Fibrillation” (ACS Med Chem Lett, 2025)

Columns and labels:
Assay type in all cases: cell-based
[1] = target: T1, Sodium channel protein type 5 subunit alpha (Homo sapiens, UniProt Q14524); assay: Inhibition of human Nav1.5 expressed in CHO-K1 cells preincubated for 3 mins followed by incubation under atrial fibrillation-mimicking condition at 5 Hz with -85 mV holding potential for 12 sec by automated Qpatch electrophysiological recording
[2] = target: T1, Sodium channel protein type 5 subunit alpha; assay: Inhibition of human Nav1.5 expressed in CHO-K1 cells preincubated for 3 mins followed by incubation under ventricular condition at sinus rate at 1 Hz with -100 mV holding potential for 25 sec by automated Qpatch electrophysiological recording
[3] = target: T1, Sodium channel protein type 5 subunit alpha; assay: Inhibition of human Nav1.5 expressed in CHO-K1 cells preincubated with compound for 3 mins in presence of ATXII followed by incubation under ventricular condition at sinus rate at 1 Hz with -100 mV holding potential for 25 sec by automated Qpatch electrophysiological recording

T1 sequence (Q14524 whole entry): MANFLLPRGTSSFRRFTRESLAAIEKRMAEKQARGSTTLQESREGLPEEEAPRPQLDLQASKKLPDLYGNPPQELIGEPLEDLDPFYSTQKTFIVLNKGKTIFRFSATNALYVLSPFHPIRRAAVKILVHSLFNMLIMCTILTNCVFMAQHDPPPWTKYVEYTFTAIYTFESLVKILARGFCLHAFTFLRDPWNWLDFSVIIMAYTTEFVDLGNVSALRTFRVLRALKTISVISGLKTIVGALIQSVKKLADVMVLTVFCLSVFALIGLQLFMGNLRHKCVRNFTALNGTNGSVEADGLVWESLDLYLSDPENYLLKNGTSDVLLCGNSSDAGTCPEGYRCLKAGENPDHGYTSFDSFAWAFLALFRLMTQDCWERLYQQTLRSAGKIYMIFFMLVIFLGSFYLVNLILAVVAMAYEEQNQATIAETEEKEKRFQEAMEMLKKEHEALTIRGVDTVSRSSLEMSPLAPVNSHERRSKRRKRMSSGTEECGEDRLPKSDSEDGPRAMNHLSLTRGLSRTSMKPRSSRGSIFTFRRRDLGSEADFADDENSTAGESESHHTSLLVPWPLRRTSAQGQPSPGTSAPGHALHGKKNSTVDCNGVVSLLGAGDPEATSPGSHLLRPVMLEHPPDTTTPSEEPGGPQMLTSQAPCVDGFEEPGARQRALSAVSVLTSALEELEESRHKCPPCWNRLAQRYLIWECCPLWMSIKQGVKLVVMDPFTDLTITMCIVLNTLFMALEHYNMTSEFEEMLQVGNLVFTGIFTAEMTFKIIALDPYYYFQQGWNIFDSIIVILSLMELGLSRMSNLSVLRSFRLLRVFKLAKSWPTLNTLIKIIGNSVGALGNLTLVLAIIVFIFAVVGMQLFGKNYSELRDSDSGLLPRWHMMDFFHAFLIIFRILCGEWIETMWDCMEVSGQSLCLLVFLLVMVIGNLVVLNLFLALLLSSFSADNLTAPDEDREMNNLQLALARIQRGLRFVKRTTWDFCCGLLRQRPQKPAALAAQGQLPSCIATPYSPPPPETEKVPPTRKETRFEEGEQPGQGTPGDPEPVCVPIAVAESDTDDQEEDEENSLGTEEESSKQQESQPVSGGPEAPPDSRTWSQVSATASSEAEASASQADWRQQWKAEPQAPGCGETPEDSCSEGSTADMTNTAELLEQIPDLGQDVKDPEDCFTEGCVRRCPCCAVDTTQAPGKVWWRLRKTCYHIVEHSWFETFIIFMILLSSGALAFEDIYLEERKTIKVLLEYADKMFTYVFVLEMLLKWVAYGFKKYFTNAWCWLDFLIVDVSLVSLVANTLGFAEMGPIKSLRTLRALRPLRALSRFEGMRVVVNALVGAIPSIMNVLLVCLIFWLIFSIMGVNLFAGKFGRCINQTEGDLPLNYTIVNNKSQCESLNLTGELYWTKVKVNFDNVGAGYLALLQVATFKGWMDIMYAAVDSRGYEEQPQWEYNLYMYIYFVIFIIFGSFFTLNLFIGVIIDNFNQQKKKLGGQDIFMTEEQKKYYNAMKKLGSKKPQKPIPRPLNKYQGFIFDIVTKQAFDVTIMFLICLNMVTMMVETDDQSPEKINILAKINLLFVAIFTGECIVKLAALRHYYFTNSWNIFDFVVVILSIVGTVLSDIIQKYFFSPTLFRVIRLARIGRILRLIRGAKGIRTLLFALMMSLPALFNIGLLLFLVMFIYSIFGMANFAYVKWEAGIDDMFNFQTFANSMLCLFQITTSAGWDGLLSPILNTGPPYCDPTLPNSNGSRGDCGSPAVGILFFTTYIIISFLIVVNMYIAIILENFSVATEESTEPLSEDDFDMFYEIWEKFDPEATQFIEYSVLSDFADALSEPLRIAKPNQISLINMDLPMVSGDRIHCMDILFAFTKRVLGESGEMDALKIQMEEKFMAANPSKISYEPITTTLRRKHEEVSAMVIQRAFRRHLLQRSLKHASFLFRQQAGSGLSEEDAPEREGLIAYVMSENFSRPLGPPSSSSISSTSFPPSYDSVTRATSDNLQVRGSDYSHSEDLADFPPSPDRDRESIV

Row | Structure (SMILES) | IC50 [1] [µM] | IC50 [2] [µM] | IC50 [3] [µM]
1 | C[C@](O)(CS(N)(=O)=O)c1cccc(-c2nnn(Cc3cc(OC(F)(F)F)ccc3F)n2)n1 | 0.8 |  | 
2 | C[C@@](O)(CS(N)(=O)=O)c1ccc(F)c(-c2nnn(Cc3cc(OC(F)(F)F)ccc3F)n2)c1 | 1 | > 30 | 11
3 | C[C@](O)(CS(N)(=O)=O)c1ccc(Cl)c(-c2nnn(Cc3cc(OC(F)(F)F)ccc3F)n2)c1 | 1.3 | 28 | 15
4 | C[C@@](O)(CS(N)(=O)=O)c1ccc(Cl)c(-c2nnn(Cc3cc(OC(F)(F)F)ccc3F)n2)c1 | 1.3 | > 30 | 28
5 | C[C@@](O)(CS(N)(=O)=O)c1cccc(-c2nnn(Cc3cc(OC(F)(F)F)ccc3F)n2)n1 | 1 |  | 
